Measurements taken from patent publication US12252524B2, “GIP/GLP1 co-agonist compounds” (Eli Lilly and Company, priority 2018, dated 2025).
Numbered stars: 1 amine (or outer) side, 2 acyl side, 3 side chain; on linkers, the order of the positions; unused ones are H or OH. Square brackets hold non-standard residues; d marks the D form. Side chains are listed from the residue outwards. Peptide text beside a SMILES is read from it. * marks the point of attachment. C20 diacid = O=C(O)CCCCCCCCCCCCCCCCCCC(=O)*; γGlu = O=C(O)[C@H](CCC(=O)[*:2])N[*:1]; AEEA = NCCOCCOCC(=O)O; Aib = CC(C)(N)C(=O)O

What was measured:
[1] = target: human GLP-1 receptor (GLP-1R) (Homo sapiens, UniProt P43220); test: cAMP pharmacological functional assay in presence of casein, hGLP-1R; type: cell-based; conditions: HEK293 cells expressing hGLP-1R, 0.1% Casein, geometric mean; read-out: hGLP1R cAMP Rel EC50 nM (SEM, n)
human Gcg receptor = target: T1, human Gcg receptor (Homo sapiens, UniProt P47871); test: [125I]-Glucagon binding (SPA), human Gcg receptor; conditions: read-out: hGLcgR Ki, nM (SEM, n)
T1 construct: expressed in transfected cells; crude membranes
Outline: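 Cell pellets were lysed in hypotonic Tris buffer, pH 7.5, homogenized, and spun at low then high speed to give crude membranes. Ki was derived from the fitted IC50.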

human GLP-1R = human GLP-1R (Homo sapiens, UniProt P43220); test: [125I]-GLP-1 binding (SPA), human GLP-1 receptor; parameters: expressed in transfected cells; crude membranes; conditions: read-out: hGLP1R Ki, (nM) (SEM, n)
Description: Two methods are used for the preparation of crude cell membranes.
Method 1: Frozen cell pellets are lysed on ice in hypotonic buffer containing 50 mM Tris HCl, pH 7.5, and Roche Complete™ Protease Inhibitors with EDTA. The cell suspension is disrupted using a glass Potter-Elvehjem homogenizer fitted with a Teflon® pestle for 25 strokes. The homogenate is centrifuged at 4° C. at 1100×g for 10 minutes. The supernatant is collected and stored on ice while the pellets are resuspended in homogenization buffer and rehomogenized as described above. The homogenate is centrifuged at 1100×g for 10 minutes. The second supernatant is combined with the first supernatant and centrifuged at 35000×g for 1 hour at 4° C. The resulting membrane pellet is resuspended in homogenization buffer containing protease inhibitors at approximately 1 to 3 mg/mL, quick frozen in liquid nitrogen and stored as aliquots in a−80° C. freezer until use.
Method 2: Frozen cell pellets are lysed on ice in hypotonic buffer containing 50 mM Tris HCl, pH 7.5, 1 mM MgCl2, Roche Complete™ EDTA-free Protease Inhibitors and 25 units/ml DNAse I (Invitrogen). The cell suspension is disrupted using a glass Potter-Elvehjem homogenizer fitted with a Teflon® pestle for 20 to 25 strokes. The homogenate is centrifuged at 4° C. at 1800×g for 15 minutes. The supernatant is collected and stored on ice while the pellets are resuspended in homogenization buffer (without DNAse I) and rehomogenized as described above. The homogenate is centrifuged at 1800×g for 15 minutes. The second supernatant is combined with the first supernatant and centrifuged an additional time at 1800×g for 15 minutes. The overall supernatant is then centrifuged at 25000×g for 30 minutes at 4° C. The resulting membrane pellet is resuspended in homogenization buffer (without DNAse I) containing protease inhibitors at approximately 1 to 3 mg/mL and stored as aliquots in a−80° C. freezer until use.
The binding buffer contains 25 mM HEPES, pH 7.4, 2.5 mM CaCl2, 1 mM MgCl2, 0.1% (w/v) bacitracin, 0.003% (w/v) TWEEN©-20, and Roche Complete™ Protease Inhibitors without EDTA.
Data are analyzed using four-parameter (curve maximum, curve minimum, IC50, Hill slope) nonlinear regression routines (Genedata Screener, version 12.0.4, Genedata AG, Basal, Switzerland). […] Values for Ki are reported as the geometric mean, with error expressed as the standard error of the mean (SEM) and n is equal to the number of independent replicates (determined in assays performed on different days). […] The Ki Ratio is a rapid indication of the apparent affinity of a peptide compared to the native control peptide. […] SEM is only calculated when n=2 or greater non-qualified results exist. Means are expressed as GeoMetric means with the standard error of the mean (SEM) and the number of replicates (n) indicated in parenthesis.

human GIP receptor = target: T2, human GIP receptor (Homo sapiens, UniProt P48546); test: [125I]-GIP binding (SPA), human GIP receptor; conditions: read-out: hGIPR Ki, nM (SEM, n)
T2 construct: expressed in transfected cells; crude membranes
T2 sequence (P48546 22-466): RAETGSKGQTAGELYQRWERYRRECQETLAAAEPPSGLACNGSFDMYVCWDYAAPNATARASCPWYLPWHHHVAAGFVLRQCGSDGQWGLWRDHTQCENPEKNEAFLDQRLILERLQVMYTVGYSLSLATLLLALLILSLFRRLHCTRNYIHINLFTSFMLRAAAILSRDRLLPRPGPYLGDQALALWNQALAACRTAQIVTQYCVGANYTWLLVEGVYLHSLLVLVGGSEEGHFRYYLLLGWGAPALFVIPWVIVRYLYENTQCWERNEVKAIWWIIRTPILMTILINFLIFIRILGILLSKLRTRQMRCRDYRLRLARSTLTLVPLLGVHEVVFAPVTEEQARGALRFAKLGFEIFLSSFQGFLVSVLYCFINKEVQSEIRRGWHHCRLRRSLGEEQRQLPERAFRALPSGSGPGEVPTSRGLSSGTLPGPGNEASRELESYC

[2] = target: T3, gastric inhibitory peptide receptor (GIPR) (Homo sapiens, UniProt P48546); test: cAMP pharmacological functional assay in presence of casein, hGIPR; type: cell-based; conditions: HEK293 cells expressing hGIPR, 0.1% Casein, geometric mean; read-out: hGIPR cAMP Rel EC50 nM (SEM, n)
T3 sequence (P48546 22-466): T2 sequence (P48546 22-466)

Chain of human GLP-1 receptor (GLP-1R) (P43220 24-463): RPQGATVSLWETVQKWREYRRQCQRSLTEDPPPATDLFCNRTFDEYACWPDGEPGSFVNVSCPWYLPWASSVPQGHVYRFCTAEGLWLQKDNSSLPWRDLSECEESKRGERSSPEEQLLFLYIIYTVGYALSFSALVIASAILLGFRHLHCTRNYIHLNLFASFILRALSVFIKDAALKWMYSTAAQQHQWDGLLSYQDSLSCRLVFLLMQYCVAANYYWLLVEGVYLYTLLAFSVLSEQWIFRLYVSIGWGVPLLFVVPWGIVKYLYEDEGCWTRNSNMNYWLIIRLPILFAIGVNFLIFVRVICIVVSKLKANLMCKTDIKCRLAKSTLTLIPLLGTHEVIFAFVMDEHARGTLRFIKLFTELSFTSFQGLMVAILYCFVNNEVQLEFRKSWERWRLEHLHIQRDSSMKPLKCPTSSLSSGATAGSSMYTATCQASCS
Chain of human GLP-1R (P43220 24-463): as above
T1 sequence (P47871 26-477): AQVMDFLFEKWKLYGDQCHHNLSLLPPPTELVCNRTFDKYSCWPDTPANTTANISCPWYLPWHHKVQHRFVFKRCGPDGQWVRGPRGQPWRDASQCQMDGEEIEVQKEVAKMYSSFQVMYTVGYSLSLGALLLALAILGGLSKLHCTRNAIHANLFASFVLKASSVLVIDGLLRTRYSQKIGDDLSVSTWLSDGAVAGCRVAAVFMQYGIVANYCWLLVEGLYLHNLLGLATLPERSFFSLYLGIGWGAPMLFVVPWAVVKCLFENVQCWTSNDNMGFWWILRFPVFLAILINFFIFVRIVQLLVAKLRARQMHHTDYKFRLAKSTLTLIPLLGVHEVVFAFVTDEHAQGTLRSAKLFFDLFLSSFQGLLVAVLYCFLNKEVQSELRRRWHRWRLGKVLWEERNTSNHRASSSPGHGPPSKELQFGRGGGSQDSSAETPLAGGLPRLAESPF

SMILES | EC50 [1] [nM] | Ki (human Gcg receptor) [nM] | Ki (human GLP-1R) [nM] | Ki (human GIP receptor) [nM] | EC50 [2] [nM]
CC[C@H](C)[C@H](NC(=O)[C@H](CO)NC(=O)[C@H](CC(=O)O)NC(=O)[C@H](CC(C)C)NC(=O)[C@H](CC(C)C)NC(=O)[C@@H](NC(=O)[C@H](CO)NC(=O)[C@H](Cc1ccc(O)cc1)NC(=O)[C@H](CC(=O)O)NC(=O)[C@H](CO)NC(=O)[C@@H](NC(=O)[C@H](Cc1ccccc1)NC(=O)[C@@H](NC(=O)CNC(=O)[C@H](CCC(=O)O)NC(=O)C(C)(C)NC(=O)[C@@H](N)Cc1ccc(O)cc1)[C@@H](C)O)[C@@H](C)O)[C@@H](C)CC)C(=O)N[C@@H](C)C(=O)N[C@@H](CCC(N)=O)C(=O)NC(C)(C)C(=O)N[C@@H](C)C(=O)N[C@@H](Cc1ccccc1)C(=O)N[C@H](C(=O)N[C@@H](CCCCNC(=O)COCCOCCNC(=O)COCCOCCNC(=O)CC[C@H](NC(=O)CCCCCCCCCCCCCCCCCCC(=O)O)C(=O)O)C(=O)N[C@@H](Cc1ccc(O)cc1)C(=O)N[C@@H](CC(C)C)C(=O)N[C@@H](CC(C)C)C(=O)N[C@@H](C)C(=O)NC(C)(C)C(=O)NCC(=O)N1CCC[C@H]1C(=O)N[C@@H](CO)C(=O)N[C@@H](CO)C(=O)NCC(=O)N[C@@H](C)C(=O)N1CCC[C@H]1C(=O)N1CCC[C@H]1C(=O)N1CCC[C@H]1C(=O)N[C@@H](CO)C(N)=O)[C@@H](C)CC [Example 10] (H-Y[Aib]EGTFTSDYSILLDSIAQ[Aib]AFIK([AEEA-AEEA-γGlu-C20 diacid])YLLA[Aib]GPSSGAPPPS-NH2) | 7.64 | 226 | 9.33 | 0.109 | 1.28
CC[C@H](C)[C@H](NC(=O)[C@H](CO)NC(=O)[C@H](CC(=O)O)NC(=O)[C@H](CC(C)C)NC(=O)[C@H](CC(C)C)NC(=O)[C@@H](NC(=O)[C@H](CO)NC(=O)[C@H](Cc1ccc(O)cc1)NC(=O)[C@H](CC(=O)O)NC(=O)[C@H](CO)NC(=O)[C@@H](NC(=O)[C@H](Cc1ccccc1)NC(=O)[C@@H](NC(=O)CNC(=O)[C@H](CCC(=O)O)NC(=O)C(C)(C)NC(=O)[C@@H](N)Cc1ccc(O)cc1)[C@@H](C)O)[C@@H](C)O)[C@@H](C)CC)C(=O)N[C@@H](C)C(=O)N[C@@H](CCC(N)=O)C(=O)NC(C)(C)C(=O)N[C@@H](C)C(=O)N[C@@H](Cc1ccccc1)C(=O)N[C@H](C(=O)N[C@@H](CCC(=O)O)C(=O)N[C@@H](Cc1ccc(O)cc1)C(=O)N[C@@H](CC(C)C)C(=O)N[C@@H](CC(C)C)C(=O)N[C@@H](CCCCNC(=O)COCCOCCNC(=O)COCCOCCNC(=O)CC[C@H](NC(=O)CCCCCCCCCCCCCCCCCCC(=O)O)C(=O)O)C(=O)NC(C)(C)C(=O)NCC(=O)N1CCC[C@H]1C(=O)N[C@@H](CO)C(=O)N[C@@H](CO)C(=O)NCC(=O)N[C@@H](C)C(=O)N1CCC[C@H]1C(=O)N1CCC[C@H]1C(=O)N1CCC[C@H]1C(=O)N[C@@H](CO)C(N)=O)[C@@H](C)CC [Example 11] (H-Y[Aib]EGTFTSDYSILLDSIAQ[Aib]AFIEYLLK([AEEA-AEEA-γGlu-C20 diacid])[Aib]GPSSGAPPPS-NH2) | 6.89 | 174 | 15.7 | 0.226 | 0.486
CC[C@H](C)[C@H](NC(=O)[C@H](CCCCN)NC(=O)[C@H](CC(=O)O)NC(=O)[C@H](CC(C)C)NC(=O)[C@H](CC(C)C)NC(=O)[C@@H](NC(=O)[C@H](CO)NC(=O)[C@H](Cc1ccc(O)cc1)NC(=O)[C@H](CC(=O)O)NC(=O)[C@H](CO)NC(=O)[C@@H](NC(=O)[C@H](Cc1ccccc1)NC(=O)[C@@H](NC(=O)CNC(=O)[C@H](CCC(=O)O)NC(=O)C(C)(C)NC(=O)[C@@H](N)Cc1ccc(O)cc1)[C@@H](C)O)[C@@H](C)O)[C@@H](C)CC)C(=O)N[C@@H](C)C(=O)N[C@@H](CCC(N)=O)C(=O)N[C@@H](CCCCNC(=O)COCCOCCNC(=O)COCCOCCNC(=O)CC[C@H](NC(=O)CCCCCCCCCCCCCCCCCCC(=O)O)C(=O)O)C(=O)N[C@@H](C)C(=O)N[C@@H](Cc1ccccc1)C(=O)N[C@H](C(=O)N[C@@H](CCC(=O)O)C(=O)N[C@@H](Cc1ccc(O)cc1)C(=O)N[C@@H](CC(C)C)C(=O)N[C@H](C(=O)N[C@@H](CCC(=O)O)C(=O)NCC(=O)NCC(=O)N1CCC[C@H]1C(=O)N[C@@H](CO)C(=O)N[C@@H](CO)C(=O)NCC(=O)N[C@@H](C)C(=O)N1CCC[C@H]1C(=O)N1CCC[C@H]1C(=O)N1CCC[C@H]1C(=O)N[C@@H](CO)C(N)=O)[C@@H](C)CC)[C@@H](C)CC [Example 12] (H-Y[Aib]EGTFTSDYSILLDKIAQK([AEEA-AEEA-γGlu-C20 diacid])AFIEYLIEGGPSSGAPPPS-NH2; N-terminus assumed) | 1.15 | 684 | 12.9 | 0.167 | 0.3
CC[C@H](C)[C@H](NC(=O)[C@H](CC(C)C)NC(=O)[C@H](Cc1ccc(O)cc1)NC(=O)[C@H](CCC(=O)O)NC(=O)[C@@H](NC(=O)[C@H](Cc1ccccc1)NC(=O)[C@H](C)NC(=O)[C@H](CCCCNC(=O)COCCOCCNC(=O)COCCOCCNC(=O)CC[C@H](NC(=O)CCCCCCCCCCCCCCCCCCC(=O)O)C(=O)O)NC(=O)[C@H](CCC(N)=O)NC(=O)[C@H](C)NC(=O)[C@@H](NC(=O)C(C)(C)NC(=O)[C@H](CC(=O)O)NC(=O)[C@H](CC(C)C)NC(=O)[C@H](CC(C)C)NC(=O)[C@@H](NC(=O)[C@H](CO)NC(=O)[C@H](Cc1ccc(O)cc1)NC(=O)[C@H](CC(=O)O)NC(=O)[C@H](CO)NC(=O)[C@@H](NC(=O)[C@H](Cc1ccccc1)NC(=O)[C@@H](NC(=O)CNC(=O)[C@H](CCC(=O)O)NC(=O)C(C)(C)NC(=O)[C@@H](N)Cc1ccc(O)cc1)[C@@H](C)O)[C@@H](C)O)[C@@H](C)CC)[C@@H](C)CC)[C@@H](C)CC)C(=O)N[C@@H](CCC(=O)O)C(=O)NCC(=O)NCC(=O)N1CCC[C@H]1C(=O)N[C@@H](CO)C(=O)N[C@@H](CO)C(=O)NCC(=O)N[C@@H](C)C(=O)N1CCC[C@H]1C(=O)N1CCC[C@H]1C(=O)N1CCC[C@H]1C(=O)N[C@@H](CO)C(N)=O [Example 13] (H-Y[Aib]EGTFTSDYSILLD[Aib]IAQK([AEEA-AEEA-γGlu-C20 diacid])AFIEYLIEGGPSSGAPPPS-NH2) | 5.39 | > 1060 | 31.1 | 0.296 | 1.05
